Test results published in PubChem BioAssay (NCI).
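Briefly, cells in 96-well plates were exposed to five compound concentrations for 48 h, and endpoints were estimated by linear interpolation. GI50 marks 50% less growth. TGI is the concentration that stops growth completely.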

Experiments:
Experiment in all cases: DTP human tumour cell line panel, 48 h
[1] = system: HOP-62 NSCLC
[2] = system: OVCAR-5 ovarian
[3] = system: DU-145 prostate
[4] = system: MCF7 breast
[5] = system: A549 NSCLC
[6] = system: CAKI-1 renal
[7] = system: SW-620 colon
[8] = system: SF-295 CNS
[9] = system: MALME-3M melanoma
[10] = system: MOLT-4 leukemia
[11] = system: UACC-257 melanoma
[12] = system: LOX IMVI melanoma
[13] = system: HCC-2998 colon
[14] = system: TK-10 renal
[15] = system: RXF 393 renal
[16] = system: HL-60(TB) leukemia
[17] = system: RPMI-8226 leukemia
[18] = system: COLO 205 colon
[19] = system: T-47D breast
[20] = system: HS 578T breast
[21] = system: SN12C renal
[22] = system: NCI/ADR-RES ovarian
[23] = system: PC-3 prostate
[24] = system: SR leukemia
[25] = system: 786-0 renal
[26] = system: U251 CNS
[27] = system: A498 renal
[28] = system: SK-OV-3 ovarian
[29] = system: NCI-H522 lung
[30] = system: CCRF-CEM leukemia
[31] = system: OVCAR-4 ovarian
[32] = system: UACC-62 melanoma
[33] = system: HCT-15 colon
[34] = system: SK-MEL-28 melanoma
[35] = system: MDA-MB-435
[36] = system: BT-549 breast
[37] = system: SF-539 CNS
[38] = system: ACHN renal
[39] = system: OVCAR-8 ovarian
[40] = system: EKVX NSCLC
[41] = system: SK-MEL-5 melanoma
[42] = system: HT29 colon
[43] = system: M14 melanoma
[44] = system: KM12 colon
[45] = system: SF-268 CNS
[46] = system: K-562 leukemia
[47] = system: IGROV1 ovarian
[48] = system: NCI-H460 lung
[49] = system: HOP-92 NSCLC
[50] = system: NCI-H226 lung
[51] = system: HCT-116 colon
[52] = system: SNB-19 CNS
[53] = system: OVCAR-3 ovarian
[54] = system: MDA-MB-468 breast
[55] = system: NCI-H23 lung

SMILES: C[C@H]1[C@@H](CC(=O)N[C@@H](Cc2coc3ccccc23)B(O)O)O[C@@H]2OC3(C)CC[C@H]4[C@H](C)CC[C@@H]1[C@@]24O3
- GI50 [1]: 2.8 µM
- TGI [1]: 12.3 µM
- GI50 [2]: 2.92 µM
- TGI [2]: 13.7 µM
- GI50 [3]: 8.58 µM
- TGI [3]: 51.6 µM
- GI50 [4]: 3.49 µM
- TGI [4]: 18.5 µM
- GI50 [5]: 3.66 µM
- TGI [5]: 18.7 µM
- GI50 [6]: 4.2 µM
- TGI [6]: 23.7 µM
- GI50 [7]: 2.69 µM
- TGI [7]: 11.5 µM
- GI50 [8]: 1.92 µM
- TGI [8]: 6.27 µM
- GI50 [9]: 1.88 µM
- TGI [9]: 6.77 µM
- GI50 [10]: 1.48 µM
- TGI [10]: 6.61 µM
- GI50 [11]: 1.85 µM
- TGI [11]: 4.19 µM
- GI50 [12]: 1.83 µM
- TGI [12]: 4.34 µM
- GI50 [13]: 2.22 µM
- TGI [13]: 4.45 µM
- GI50 [14]: 2.71 µM
- TGI [14]: 8.86 µM
- GI50 [15]: 1.53 µM
- TGI [15]: 3.47 µM
- GI50 [16]: 2.25 µM
- TGI [16]: 6.84 µM
- GI50 [17]: 1.23 µM
- TGI [17]: 5.65 µM
- GI50 [18]: 3.07 µM
- TGI [18]: 12.2 µM
- GI50 [19]: 3.3 µM
- TGI [19]: 16.5 µM
- GI50 [20]: 2.56 µM
- TGI [20]: 9.97 µM
- GI50 [21]: 4.07 µM
- TGI [21]: 15.9 µM
- GI50 [22]: 11.6 µM
- TGI [22]: 26.3 µM
- GI50 [23]: 5.47 µM
- TGI [23]: 40.1 µM
- GI50 [24]: 1.48 µM
- TGI [24]: 5.16 µM
- GI50 [25]: 4.24 µM
- TGI [25]: 19.2 µM
- GI50 [26]: 3.78 µM
- TGI [26]: 15.4 µM
- GI50 [27]: 4.45 µM
- TGI [27]: 16.6 µM
- GI50 [28]: 5.37 µM
- TGI [28]: 19.2 µM
- GI50 [29]: 1.82 µM
- TGI [29]: 4.26 µM
- GI50 [30]: 2.45 µM
- TGI [30]: 12.2 µM
- GI50 [31]: 6.09 µM
- TGI [31]: > 100 µM
- GI50 [32]: 1.89 µM
- TGI [32]: 4.26 µM
- GI50 [33]: 2.22 µM
- TGI [33]: 5.88 µM
- GI50 [34]: 2.92 µM
- TGI [34]: 11.5 µM
- GI50 [35]: 2.06 µM
- TGI [35]: 5.03 µM
- GI50 [36]: 1.64 µM
- TGI [36]: 4.2 µM
- GI50 [37]: 1.92 µM
- TGI [37]: 4.05 µM
- GI50 [38]: 3.08 µM
- TGI [38]: > 100 µM
- GI50 [39]: 9.53 µM
- TGI [39]: 24.7 µM
- GI50 [40]: 5.01 µM
- TGI [40]: 23.6 µM
- GI50 [41]: 2.29 µM
- TGI [41]: 5.48 µM
- GI50 [42]: 2.27 µM
- TGI [42]: 5.36 µM
- GI50 [43]: 2.1 µM
- TGI [43]: 5.96 µM
- GI50 [44]: 3.42 µM
- TGI [44]: 11.6 µM
- GI50 [45]: 4.67 µM
- TGI [45]: > 100 µM
- GI50 [46]: 3.25 µM
- TGI [46]: 22.9 µM
- GI50 [47]: 4.03 µM
- TGI [47]: 18.9 µM
- GI50 [48]: 3.89 µM
- TGI [48]: 15.2 µM
- GI50 [49]: 3.88 µM
- TGI [49]: 15.4 µM
- GI50 [50]: 1.3 µM
- TGI [50]: 2.84 µM
- GI50 [51]: 2.19 µM
- TGI [51]: 5.56 µM
- GI50 [52]: 6.28 µM
- TGI [52]: > 100 µM
- GI50 [53]: 3.07 µM
- TGI [53]: 11.1 µM
- GI50 [54]: 1.93 µM
- TGI [54]: 4.49 µM
- GI50 [55]: 3.16 µM
- TGI [55]: 14.6 µM
